Holding throughout (assay type): cell-based
The subject of one assay is Candida albicans. In words: Minimum inhibitory concentration (MIC100), CLSI M38-A2 broth dilution. As to the method:
Several strains of Aspergillus flavus, Aspergillus fumigatus, and Candida albicans were tested. Trichophyton rubrum MYA4498 and T. mentagrophytes MYA4439, the QC isolates approved by the Clinical and Laboratory Standards Institute (CLSI) for dermatophyte susceptibility testing, can also be tested.
(§1) MIC testing was performed according to the CLSI M38A2 standard for the susceptibility testing of dermatophytes developed at the Center for Medical Mycology (See, Ghannoum et al., 2004, J Clin Microbial. 42(7): 2977-2979 CLSI, Reference Method for Broth Dilution Antifungal Susceptibility Testing of Filamentous Fungi: Approved Standard-Second Edition. CLSI document M38-A2 [ISBN 1-56238-668-9]. CLSI, 940 West Valley Road, Suite 1400, Wayne, Pa. 19087-1898 USA, 2008). Briefly, RPMI was the test medium, incubation temperature and time was 35° C. and 24 hours or 48 hours, respectively, and the inoculum size was 1-3×10^3 conidia/ml. The MIC endpoint was 100% inhibition as compared to the growth control.
The MIC range, MIC100 (defined as the minimum concentration required to inhibit 100% of the isolates tested), for the antifungal preparations of the invention and comparators was computed. The MFC range, MFC50, MFC90, and MFC100 for the antifungal preparations of the invention and comparators can also be computed.
Similarly, the lowest concentration (μg/mL) of a fluconazole formulation of the invention was compared to flucanozole alone that is required to inhibit 100% growth of various isolates of Candida albicans (MIC100) was determined (see Table 14). In this example, the fluconazole formulation of the invention comprises fluconazole formulated with a phosopholipid and a surfactant.

For another assay, the system named is Aspergillus flavus. Briefly: MIC100 of voriconazole and terbinafine formulation individually and in combination, FICI. As to conditions: for MIC100, Combination: concentration of the agent when voriconazole and terbinafine formulation are used in combination; for MIC: Aspergillus flavus, agent used individually, read-out: MIC100, Individual. As to the method:
as §1
(§2) The lowest concentration (μg/mL) of either a terbinafine formulation of the invention or voriconazole, when used in combination, that is required to inhibit 100% of various isolates of Aspergillus flavus and Aspergillus fumigatus (MIC100) was determined (see Table 15). In this example, the terbinafine formulation of the invention comprises terbinafine formulated with a phospholipid and a surfactant.
(§3) Depicted in Table 15, the Fractional Inhibitory […] Index (FWD measures the degree of interaction between the two antifungal agents. A FICI value of greater than 4 indicates an antagonistic interaction; a FICI value of between 0.5 and 4 indicates no interaction; and a FICI value of less than 0.5 indicates a synergistic interaction. As depicted in Table 15, a lower concentration of either voriconazole or terbinafine formulation is generally able to inhibit 100% growth of various isolates of Aspergillus fumigatus and Aspergillus flavus when both antifungal agents are used in combination than the concentration required to inhibit 100% growth of various isolates of Aspergillus fumigatus and Aspergillus flavus when either voriconazole or terbinafine formulation is used individually.

The subject of a further assay is Aspergillus fumigatus. Described as above. As to conditions: for MIC100, Combination: concentration of the agent when voriconazole and terbinafine formulation are used in combination; for MIC: Aspergillus fumigatus, agent used individually, read-out: MIC100, Individual. Here is the method:
as §1, §2, §3

Setting [1] is: A. fumigatus strain MRL No. 2456.
Where [2] appears, read: A. fumigatus strain MRL No. 2471.
[3] abbreviates: A. fumigatus strain MRL No. 2574.
Setting [4] is: A. fumigatus strain MRL No. 16627.
Setting [5] is: A. fumigatus strain MRL No. 16629.

≈ marks a conversion by molar mass, not a printed value. Where two headings read alike, the source gives them in different places.

As for `OC(Cn1cncn1)(Cn1cncn1)c1ccc(F)cc1F` [Flucanozole, fluconazole], the MIC against Candida albicans (C. albicans strain MRL No. 648) is greater than 64 µg/mL; in the assay on Candida albicans (C. albicans strain MRL No. 9650), greater than 128 µg/mL; against Candida albicans (C. albicans strain MRL No. 9698), 32 µg/mL (≈ 104 µM); against Candida albicans (C. albicans strain MRL No. 14461), 0.25 µg/mL (≈ 0.816 µM); against Candida albicans (C. albicans strain MRL No. 14465), 0.25 µg/mL (≈ 0.816 µM).
As for `C[C@@H](c1ncncc1F)[C@](O)(Cn1cncn1)c1ccc(F)cc1F` [Voriconazole, voriconazole], the “MIC100, Combination” value in the assay with Aspergillus flavus (A. flavus strain MRL No. 17842) is 0.12 µg/mL; in the assay on Aspergillus flavus (A. flavus strain MRL No. 18736) it was 0.12 µg/mL; in the assay on Aspergillus flavus (A. flavus strain MRL No. 18743) it was 0.12 µg/mL; in the assay on Aspergillus flavus (A. flavus strain MRL No. 18744), 0.03 µg/mL; in the assay on Aspergillus fumigatus (setting [1]) it was 0.06 µg/mL; in the assay with Aspergillus fumigatus (setting [2]), 0.06 µg/mL. Further, the “MIC100, Combination” value in the assay with Aspergillus fumigatus (setting [3]) worked out at 0.06 µg/mL; in the assay with Aspergillus fumigatus (setting [4]) it was 0.03 µg/mL; in the assay with Aspergillus fumigatus (setting [5]), 0.03 µg/mL. The MIC in the assay on Aspergillus flavus (A. flavus strain MRL No. 17842) was determined as 0.25 µg/mL; with Aspergillus flavus (A. flavus strain MRL No. 18736) it was 0.5 µg/mL; in the assay on Aspergillus flavus (A. flavus strain MRL No. 18743) it was 0.5 µg/mL; in the assay with Aspergillus flavus (A. flavus strain MRL No. 18744), 0.8 µg/mL; with Aspergillus fumigatus (setting [1]) it was 0.12 µg/mL; in the assay with Aspergillus fumigatus (setting [2]), 0.25 µg/mL. The MIC with Aspergillus fumigatus (setting [3]) was 0.25 µg/mL; with Aspergillus fumigatus (setting [4]), 0.5 µg/mL; with Aspergillus fumigatus (setting [5]), 0.12 µg/mL.

Source of the values: patent US20120245107A1, “METHODS OF REDUCING THE PROLIFERATION AND VIABLILITY OF MICROBIAL AGENTS” (Targeted Delivery Technologies Limited, priority 2009, published 2012).
